Where two headings read alike, the source gives them in different places.
Key:
[1] = system: H1-histamine receptors (bronchoconstrictor effect of histamine); assay: Anesthetized guinea pigs, antagonism of the bronchoconstrictor effect of histamine (histamine bronchospasm model); assay type: in vivo, guinea pig; conditions: for ED50: Cavia porcellus; for Duration of effective blockade of H1-histamine receptors: histamine bronchospasm model, oral dose of 3 mg/kg
Description: In tests on intact animals, substances were administered intravenously (5 minutes before the administration of histamine) and orally (2 hours before the beginning of the study).

histamine-induced itch = assay: Itching induced by instillation of histamine solution into the eye of conscious guinea pigs; assay type: in vivo, guinea pig; conditions: 3 mg/kg administered orally
Excerpt: (Rukovodstvo po […] [Manual on experimental study of new pharmacological substances], Moscow, 2005, p. 511)

mice [2] = conditions: mice perorally; literature value (footnotes * and **); cited from earlier work
[3] = system: isolated guinea pig ileum (spasmogenic effect of histamine); assay: Isolated guinea pig ileum, suppression of the spasmogenic effect of histamine; assay type: cell-based; conditions: histamine spasm, read-out: Antihistaminic activity, isolated ileum of guinea pig, IC50
Excerpt: Study of the antihistaminic activity of the compounds on which a claim is made was done using known methodologies (Rukovodstvo po eksperimental'nomu izucheniyu novykh farmakologicheskikh veshchestv [Manual on experimental study of new pharmacological substances], Moscow, 2005, p. 489) on isolated guinea pig ileum (suppression of the spasmogenic effect of histamine) and on anesthetized guinea pigs (antagonism in relation to the bronchoconstrictor effect of histamine). In tests on intact animals, substances were administered intravenously (5 minutes before the administration of histamine) and orally (2 hours before the beginning of the study).

[4] = system: passive cutaneous anaphylaxis; assay: Passive cutaneous anaphylaxis model in rats; assay type: in vivo, rat
Excerpt: (Rukovodstvo po eksperimental'nomu izucheniyu novykh farmakologicheskikh veshchestv [Manual on experimental study of new pharmacological substances], Moscow, 2005, p. 511)

mice [5] = assay: Acute toxicity, mice perorally
[6] = pH of aqueous solution of salts; assay type: physicochemical
[7] = po, anesthetized guinea pigs, orally 2 hours before the study, read-out: Antihistaminic activity, guinea pigs in vivo, peroral administration, ED50
[8] = anesthetized guinea pigs, intravenous, 5 minutes before histamine, read-out: Antihistaminic activity, guinea pigs in vivo, intravenous administration, ED50

SMILES | ED50 [1, 7] [mg/kg] | ED50 [1, 8] [mg/kg] | Duration of effective blockade of H1-histamine receptors [1] [h] | Duration of the protective effect in the histamine-induced itch model (histamine-induced itch) | Acute toxicity, LD50 (mice [2]) | IC50 ([3]; Cavia porcellus) [µM] | Antiallergic effect, passive cutaneous anaphylactic model ([4]; dose 3 mg/kg) | IC50 [3] [µM] | Antihistaminic activity, guinea pigs in vivo, intravenous administration, ED50 ([1]; anesthetized guinea pigs, intravenous, 5 minutes before histamine) [mg/kg] | Antihistaminic activity, guinea pigs in vivo, peroral administration, ED50 ([1]; anesthetized guinea pigs, orally 2 hours before the study) [mg/kg] | Antiallergic effect, passive cutaneous anaphylactic model ([4]; dose 1 mg/kg) | Acute toxicity, LD50 (mice [5]) [mg/kg] | pH of aqueous solution [6] | Thermal stability (Thermal stability)
CN1CCCC(n2nc(Cc3ccc(Cl)cc3)c3ccccc3c2=O)CC1 (centres unmarked) [Azelastine, reference compound] | 0.015 | 0.05 | 48 | diminishes significantly after 48 hours and disappears altogether after 72 hours | 124-139** mg/kg | – | – | – | – | – | – | – | – | –
O=C(O)COCCN1CCN(C(c2ccccc2)c2ccc(Cl)cc2)CC1 (centres unmarked) [Cetirizine, reference compound] | 0.2 | 0.07 | 48 | diminishes significantly after 48 hours and disappears altogether after 72 hours | – | 0.127 | moderate and similar antiallergic effect | – | – | – | – | – | – | –
Cn1c(=O)[nH]c(=O)c2c1ncn2CCCCN1CCN(C(c2ccccc2)c2ccccc2)CC1 [II-g, 3-methyl-7-[4-(benzhydryl-4-piperazinyl-1)butyl]xanthine] | – | – | 72 | remains at a stable level for 2 days and decreases only after 72 hours | – | – | – | 0.018 | 0.02 | 0.02 | moderate and similar antiallergic effect | 1300.0 | – | –
Cn1c(=O)[nH]c(=O)c2c1ncn2CCCCN1CCN(C(c2ccccc2)c2ccccc2)CC1.O=C(O)CCC(=O)O [Succinate, 7-/4-(4-benzhydrylpiperazinyl-1)butyl/-3-methylxanthine succinate] | – | – | – | – | – | – | – | – | – | – | – | – | 4.85 | good thermal stability

— patent US8569489B2 (A.B. Intelpharm Limited, priority 2007, dated 2013)
